Assay results taken from paper PMC12112476, “Mass Spectrometric ITEM-FOUR Analysis Reveals Coding Single-Nucleotide Polymorphisms in Human Cardiac Troponin T That Evade Detection by Sandwich ELISAs Which Use Monoclonal Antibodies M7 and M11.7 from the Elecsys Troponin T® Assay” (International Journal of Molecular Sciences, 2025).
Each block holds one sequence with its values, some of them ahead of it.

Experiments:
Assay type in all cases: binding
[1] = test system: monoclonal anti-hcTnT antibody M11.7; test: ITEM-FOUR nano-ESI mass spectrometry: in-solution immune complex formation and gas-phase dissociation of M11.7 antibody–epitope peptide complexes; settings: for in-solution immune complex formation with M11.7 (binding in words): nano-ESI-MS, 200 mM ammonium acetate pH 6.7
Method: (§1) Immune complex-containing solutions of a wild-type epitope peptide and its corresponding antibody, e.g., P11 and M7, were prepared by mixing the two components in 200 mM ammonium acetate buffer (pH 6.7), ensuring a molar excess of the epitope peptide over the antibody to achieve binding saturation. After an incubation period of one hour, the entire mixture (~3 µL) was loaded into a nano-ESI emitter and electrosprayed. The mass spectrometer was configured to transmit only ion signals with m/z values above 3850, effectively eliminating signals from the unbound peptide (Figure 1A).
(§2) Antibody–peptide mixture solutions were prepared for ITEM FOUR experiments by mixing 5 µL of one antibody working solution with one assigned peptide working solution to generate antibody to peptide molar ratios of 1:2.1 for all solutions that contained the M7 antibody. For mixture solutions containing the M11.7 or the anti-TNFα antibody, 1:13 molar ratios were prepared. Antibodies were incubated together with peptides for at least one hour at room temperature prior to analysis.
(§3) Data acquisition for ITEM-FOUR experiments was performed as described in [18] with the Synapt G2S mass spectrometer (Waters MS-Technologies, Wilmslow, UK) and with the following instrumental settings: source temperature, 40 °C; capillary voltage, 1.0–1.3 kV; sample cone voltage, 130 V; source offset voltage, 130 V; trap gas flow (argon), 8.0 mL/min; helium gas: 20 bar. All mass spectra were acquired in positive-ion mode applying a mass window of m/z 200–8000. The quadrupole analyzer was used to block transmission of lower-molecular-mass ions: M1 = 5000 with dwell time of 25% and ramp time of 25%; M2 = 5000 with dwell time of 25% and ramp time of 25%; M3 = 5000. ΔCV in the TRAP collision cell was increased stepwise as follows: 0, 2, 6, 10, 14, 18, 22, 26, 30, 34, 40, 46, 52 and 58 V. The ion mobility separation mode was not used. All acquired scans during a given collision cell voltage difference setting were integrated to obtain an averaged spectrum from which ion intensities were extracted for ITEM-FOUR calculations. Data were acquired and processed with MassLynx software version 4.1 (Waters MS-Technologies). For exact time stamps of all measurements, refer to Table S2 in the Supplement (see also the deposited raw data supplement in the PRIDE directory). All mass spectra for each ΔCV setting were smoothed using the Savitzky-Golay method. Spectra of antibody solutions and antibody–peptide mixture solutions were smoothed using 30 cycles with a 15-mass unit window at the high mass end and at the low mass end with 3 cycles and a 2-mass unit window. All measurements were recorded in duplicate. The mass spectrometric raw data have been deposited via the ProteomeXchange Consortium in the PRIDE partner repository with the dataset identifier PXD058812 [70].
(§4) The Origin Pro 2023b (64-bit, OriginLab Corporation, Northampton, MA, USA) software package with an automation script for processing multiple datasets was used to graphically plot the extracted intensities of the ion signals of all relevant molecular entities (the immune complex with two bound peptides, the immune complex with one bound peptide, free antibodies, and free peptides) against their corresponding charge state for each collision cell voltage difference (ΔCV). Subsequently, Gaussian curve fittings were performed separately for each molecular entity. […] Iterations were performed for R2 values to be at least 0.91. Apices of Gaussian curves provided the intensities and the average m/z values for each molecular species. Intensity values of individual molecular entities (educts and products) were summed and normalized. Normalized intensities of educts and products from duplicate measurements were averaged.
(§5) The number of atoms from rituximab was used because the amino acid sequences of neither the M7 nor the M11.7 antibody were disclosed. […]

[2] = test system: monoclonal anti-hcTnT antibody M7; test: ITEM-FOUR nano-ESI mass spectrometry: in-solution immune complex formation and gas-phase dissociation of M7 antibody–epitope peptide complexes; settings: for in-solution immune complex formation with M7 (binding in words): nano-ESI-MS, 200 mM ammonium acetate pH 6.7, peptide:antibody 2.1:1 (epitope series) or 13:1 (negative controls); for dx (V): Boltzmann curve parameter; for dx (V) / ΔCV50 (V) / Slope (%/V): peptide:antibody 2.1:1; for dx (V) / ΔCV50 (V) / Final (%) / Initial (%) / Slope (%/V): averaged from two acquisitions; for KD m0g# [Ø]: apparent gas-phase dissociation constant, dimensionless number, extrapolated to ambient temperature; for Binding Type: class by difference of normalized product ion intensities over ΔCV; for ΔCV50 (V): collision cell voltage difference for 50% dissociation, Boltzmann fit; for Final (%): normalized product ion quantity at highest applied ΔCV, peptide:antibody 2.1:1, 200 mM ammonium acetate pH 6.7; for Initial (%): normalized product ion quantity at lowest applied ΔCV, peptide:antibody 2.1:1, 200 mM ammonium acetate pH 6.7, at least 1 h RT, nano-ESI, ΔCV 0-58 V; for ΔGm0g# / Tamb ΔSm0g# / ΔHm0g#: pseudo thermodynamic value of gas-phase complex dissociation; for ΔGm0g#: Ellingham diagram read at Tamb; for Tamb ΔSm0g# / ΔHm0g#: extrapolated to Tamb; for Slope (%/V): slope of Boltzmann curve
Method: as §1, §2, §3, §4, §5

anti-TNFα antibody = test: Nano-ESI-MS negative control: epitope peptide mixed with an unrelated antibody; settings: 200 mM ammonium acetate pH 6.7, peptide:antibody 13:1
Method: Negative controls were investigated to confirm specificity of in-solution complex formations. […] To further rule out non-specific interactions for epitope peptide P11 or epitope peptide P21, either of them was separately mixed with an unrelated anti-TNFα antibody (Figures S46 and S47).
The anti-TNFα antibody stock solution (2 µg/µL) was prepared from lyophilized antibody powder (article number: MAS: 23720, ThermoFisher Scientific) and 200 mM ammonium acetate (pH 6.7).
as §2
Data acquisition for ITEM-FOUR experiments was performed as described in [18] with the Synapt G2S mass spectrometer (Waters MS-Technologies, Wilmslow, UK) and with the following instrumental settings: source temperature, 40 °C; capillary voltage, 1.0–1.3 kV; sample cone voltage, 130 V; source offset voltage, 130 V; trap gas flow (argon), 8.0 mL/min; helium gas: 20 bar. […] All measurements were recorded in duplicate. […]

[3] = pseudo thermodynamic value of gas-phase complex dissociation, extrapolated to Tamb

Sequence: GPSIVHRKSFHHHHHH [His-tag peptide, unrelated His-tag peptide used as negative control, reference compound]
in-solution immune complex formation with M11.7 (binding in words) ([1]; peptide:antibody 13:1): did not produce any immune complexes
in-solution immune complex formation with M7 (binding in words) [2]: did not produce any immune complexes

Sequence: LVSLKDRIERCRAER [Peptide P13]
dx (V) [2]: 6.55 V
KD m0g# [Ø] [2]: 0.28 Ø
Binding Type [2]: orthodox (The differences in normalized product ion intensity values were always greater than 15 percentage points)
ΔCV50 (V) [2]: 23.30 V
Final (%) [2]: 83.40%
Initial (%) [2]: 40.36%
ΔGm0g# [2]: 0.758 kcal/mol
Tamb ΔSm0g# [2]: 12.43 kcal/mol
ΔHm0g# [2]: 13.18 kcal/mol
Slope (%/V) [2]: 1.64 %/V

Sequence: LVSLKDRIERRGAER [Peptide P15]
dx (V) [2]: 6.09 V
Binding Type [2]: unorthodox (Differences in normalized product ion intensities were less than 15 percentage points, but greater than 5 percentage points)
ΔCV50 (V) [2]: 24.89 V
Final (%) [2]: 84.98%
Initial (%) [2]: 70.69%
Slope (%/V) [2]: 0.59 %/V

Sequence: LVSLKDRIERRRAER [Peptide P11]
in-solution immune complex formation with M11.7 (binding in words) ([1]; peptide:antibody 13:1): no immune complexes were detected
dx (V) [2]: 6.69 V
KD m0g# [Ø] [2]: 0.59 Ø
Binding Type [2]: orthodox (The differences in normalized product ion intensity values were always greater than 15 percentage points)
ΔCV50 (V) [2]: 25.27 V
Final (%) [2]: 84.36%
Initial (%) [2]: 56.43%
ΔGm0g# [2]: 0.306 kcal/mol
Tamb ΔSm0g# [2]: 9.312 kcal/mol
ΔHm0g# [2]: 9.62 kcal/mol
Slope (%/V) [2]: 1.04 %/V
in-solution immune complex formation with anti-TNFα antibody (anti-TNFα antibody): No immune complex signals were observed

Sequence: LVSLKDRIKRRRAER [Peptide P12]
Binding Type [2]: non-binding (The differences in normalized product intensity values were less than 5 percentage points)
in-solution immune complex formation with M7 (binding in words) [2]: no immune complex had formed in solution
in-solution immune complex formation with M7 (binding in words) ([2]; listed as E138K): disrupted binding
Final (%) [2]: 92.28%
Initial (%) [2]: 89.38%

The next lines start with results.

KD m0g# [Ø] ([1]; apparent gas-phase dissociation constant, dimensionless number, extrapolated to ambient temperature): 0.92 Ø
in-solution immune complex formation with M7 (binding in words) [2]: no immune complexes were detected
Sequence: AEQQRIRNEREKERQ [Peptide P21]
dx (V) ([1]; Boltzmann curve parameter, peptide:antibody 13:1, averaged from two acquisitions): 5.77 V
Binding Type ([1]; class by difference of normalized product ion intensities over ΔCV): orthodox (The differences in normalized product ion intensity values were always greater than 15 percentage points)
ΔCV50 (V) ([1]; collision cell voltage difference for 50% dissociation, Boltzmann fit, peptide:antibody 13:1, averaged from two acquisitions): 12.77 V
Final (%) ([1]; normalized product ion quantity at highest applied ΔCV, peptide:antibody 13:1, 200 mM ammonium acetate pH 6.7, averaged from two acquisitions): 96.29%
Initial (%) ([1]; normalized product ion quantity at lowest applied ΔCV, peptide:antibody 13:1, 200 mM ammonium acetate pH 6.7, at least 1 h RT, nano-ESI, ΔCV 0-58 V, averaged from two acquisitions): 56.91%
ΔGm0g# ([1]; pseudo thermodynamic value of gas-phase complex dissociation, Ellingham diagram read at Tamb): 0.0502 kcal/mol
Tamb ΔSm0g# [1, 3]: 17.28 kcal/mol
ΔHm0g# [1, 3]: 17.34 kcal/mol
Slope (%/V) ([1]; slope of Boltzmann curve, peptide:antibody 13:1, averaged from two acquisitions): 1.71 %/V
in-solution immune complex formation with anti-TNFα antibody (anti-TNFα antibody): No immune complex signals were observed

KD m0g# [Ø] [2]: 0.48 Ø
Sequence: LVSLKDRIERRPAER [Peptide P16]
dx (V) [2]: 5.05 V
Binding Type [2]: orthodox (The differences in normalized product ion intensity values were always greater than 15 percentage points)
ΔCV50 (V) [2]: 15.83 V
Final (%) [2]: 96.90%
Initial (%) [2]: 55.34%
ΔGm0g# [2]: 0.44 kcal/mol
Tamb ΔSm0g# [2]: 20.02 kcal/mol
ΔHm0g# [2]: 20.46 kcal/mol
Slope (%/V) [2]: 2.06 %/V

KD m0g# [Ø] [2]: 0.62 Ø
Sequence: LVSLKDRIERRQAER [Peptide P17]
dx (V) [2]: 6.46 V
Binding Type [2]: orthodox (The differences in normalized product ion intensity values were always greater than 15 percentage points)
ΔCV50 (V) [2]: 24.61 V
Final (%) [2]: 82.69%
Initial (%) [2]: 56.18%
ΔGm0g# [2]: 0.272 kcal/mol
Tamb ΔSm0g# [2]: 8.824 kcal/mol
ΔHm0g# [2]: 9.097 kcal/mol
Slope (%/V) [2]: 1.03 %/V

KD m0g# [Ø] [2]: 0.28 Ø
Sequence: LVSLKDRIERRWAER [Peptide P14]
dx (V) [2]: 4.33 V
Binding Type [2]: orthodox (The differences in normalized product ion intensity values were always greater than 15 percentage points)
ΔCV50 (V) [2]: 18.02 V
Final (%) [2]: 93.86%
Initial (%) [2]: 54.37%
ΔGm0g# [2]: 0.748 kcal/mol
Tamb ΔSm0g# [2]: 21.26 kcal/mol
ΔHm0g# [2]: 22.01 kcal/mol
Slope (%/V) [2]: 2.28 %/V
